Test results: patent publication US12246010B2, “Formulations of tegavivint and related compounds” (Iterion Therapeutics, Inc., priority 2018, dated 2025)
Several values for one entry are separate records, joined by “and”; a condition that tells them apart may be missing. Equal values may be shown once.

Key:
red blood cells = assay: Hemolysis of red blood cells; format: cell-based; conditions: in the nanoparticle form or when dissolved in DMSO
Excerpt: It was hypothesized that the tween/ethanol/PEG/Vitamin E/Intralipid solvent-based excipients and probable drug precipitation were responsible for the infusion reactions and not tegavivint itself.

[1] = Dose-escalating intravenous infusion study in male Beagle dogs (plasma PK); format: in vivo; conditions: dog
Description: • Study Animals: Four male non-naïve Beagle dogs were released by Xenometrics for study use on Apr. 20, 2017. The animals were fed Harlan Teklad® Global 25% Protein Certified Dog Diet 2025C ad libitum throughout the study (except for brief periods during in-life procedures when it was • Dosing: Animals were dosed via intravenous (IV) infusion (via jugular vein) for 4 hours (h) [±5 minutes (min)].
[…] All blood samples were collected within 10 minutes of the target time and processed per protocol. Bioanalytical results indicated tegavivint was present in all plasma samples.
The pharmacokinetic parameters were determined for BC-2059 following the final 15 mg/kg infusion of the drug over 4 h.

[2] = 15 mg/kg 4 h IV infusion, individual animals, 15 mg/kg

Plasma BC-2059, 4 h [1, 2]: 1310 ng/mL and 1320 ng/mL and 1150 ng/mL
Plasma BC-2059, 12 h [1, 2]: 916.0 ng/mL and 1050 ng/mL and 777 ng/mL
Plasma BC-2059, 24 h [1, 2]: 1120 ng/mL (2×) and 1070 ng/mL
Plasma BC-2059, 36 h [1, 2]: 834 ng/mL and 931 ng/mL and 708 ng/mL
Plasma BC-2059, 48 h [1, 2]: 663 ng/mL and 656 ng/mL and 647 ng/mL
Plasma BC-2059, 72 h [1, 2]: 511 ng/mL and 480 ng/mL and 524 ng/mL
Plasma BC-2059, 96 h [1, 2]: 360 ng/mL and 310 ng/mL and 364 ng/mL
Plasma BC-2059, 120 h [1, 2]: 321 ng/mL and 262 ng/mL and 281 ng/mL
concentration at 4 h ([1]; male, Beagle, plasma, iv, 15 mg/kg, 15 mg/kg 4 h IV infusion, individual animals, read-out: Plasma BC-2059, 4 h): 1600 ng/mL
concentration at 12 h ([1]; male, Beagle, plasma, iv, 15 mg/kg, 15 mg/kg 4 h IV infusion, individual animals, read-out: Plasma BC-2059, 12 h): 784 ng/mL
concentration at 24 h ([1]; male, Beagle, plasma, iv, 15 mg/kg, 15 mg/kg 4 h IV infusion, individual animals, read-out: Plasma BC-2059, 24 h): 723 ng/mL
concentration at 36 h ([1]; male, Beagle, plasma, iv, 15 mg/kg, 15 mg/kg 4 h IV infusion, individual animals, read-out: Plasma BC-2059, 36 h): 674 ng/mL
concentration at 48 h ([1]; male, Beagle, plasma, iv, 15 mg/kg, 15 mg/kg 4 h IV infusion, individual animals, read-out: Plasma BC-2059, 48 h): 664 ng/mL
concentration at 72 h ([1]; male, Beagle, plasma, iv, 15 mg/kg, 15 mg/kg 4 h IV infusion, individual animals, read-out: Plasma BC-2059, 72 h): 393 ng/mL
concentration at 96 h ([1]; male, Beagle, plasma, iv, 15 mg/kg, 15 mg/kg 4 h IV infusion, individual animals, read-out: Plasma BC-2059, 96 h): 277 ng/mL
concentration at 120 h ([1]; male, Beagle, plasma, iv, 15 mg/kg, 15 mg/kg 4 h IV infusion, individual animals, read-out: Plasma BC-2059, 120 h): 228 ng/mL
Cmax ([1]; male, Beagle, plasma, 15 mg/kg IV over 4 h, mean, n = 4 males): 1340 ± 187 ng/mL
AUC(0-t) ([1]; male, Beagle, plasma, 15 mg/kg IV over 4 h, mean, n = 4 males, read-out: AUC0-120 h): 73500 ng·h/mL
half-life ([1]; male, Beagle, plasma, 15 mg/kg IV over 4 h, mean, n = 4 males, read-out: T½ (converted)): 53 h
Structure (SMILES): C[C@@H]1C[C@H](C)CN(S(=O)(=O)c2ccc3c(c2)C(=NO)c2cc(S(=O)(=O)N4C[C@H](C)C[C@H](C)C4)ccc2C3=NO)C1 [BC2059, tegavivint]
hemolysis of red blood cells (red blood cells): does not cause hemolysis
Plasma BC-2059, Predose ([1]; prior to Dose 6 (15 mg/kg 4 h IV infusion), individual animals, 15 mg/kg): 257 ng/mL and 404 ng/mL and 309 ng/mL and 284 ng/mL
